Reference: patent US11474097B2, “Method of identifying a compound which affects the multienzyme metabolic assembly of glucose metabolism and its association with cell cycle progression in cancer cells” (UNIVERSITY OF MARYLAND, BALTIMORE COUNTY, priority 2018, dated 2022)
pEC50: −log10 of the molar value. Structures can show the parent of a compound that is named as a salt.

Columns and labels:
Format in all cases: cell-based, human
[1] = test system: PFK1-mEGFP clustering in HeLa-T-PFK1G cells; test: High-resolution fluorescence microscopy of PFK1-mEGFP clustering
Experimental: A day before imaging, HeLa-T-PFK1G cells in RPMI1640 supplemented with 10% dialyzed FBS, 200 ug/ml G418 sulfate and 100 ug/ml hygromycin B, were plated in the presence of 1 μg/mL doxycycline to induce the expression of PFK1-mEGFP. On the day of imaging, the cells were washed three times with an imaging solution (20 mM HEPES (pH 7.4), 135 mM NaCl, 5 mM KCl, 1 mM MgCl2, 1.8 mM CaCl2) and 5.6 mM glucose) and allowed to adjust to ambient temperature for ˜45-60 minutes prior to small molecule treatments. Meanwhile, transiently transfected HeLa cells were imaged after being washed with the imaging solution after ˜24 hours following transfection. The cells were then treated with small molecules and incubated at 37° C. for the given time. All samples were imaged at ambient temperature (˜25° C.) with a 60×1.45 NA objective lens (Nikon CFI Plan Apo TIRF) using a Photometrics CoolSnap EZ monochrome CCD camera on a Nikon Eclipse Ti-inverted C2 confocal microscope.
Epifluorescence imaging was carried out using a set of Z488/10-FC cleanup, HC TIRF Dichroic and 525/50-HC emission filter from Chroma Technology. Images were acquired using NIS Elements (Nikon) and images were analyzed using an ImageJ freeware (National Institutes of Health).
Next, the 8 compounds were assessed for their ability to induce PFK1-mEGFP clustering under high-resolution fluorescence microscopy. HeLa-T-PFK1G cells were treated with 57.5 μM for 5 hours (FIGS. 2A and 2B) and 10 μM for 25 hours (FIGS. 2C and 2D). […] Quantitatively, SU9516 induced medium- and large-sized PFK1-mEGFP clustering in 26.6±12% of the cells at 57.5 μM for 5 hours, and in 40.0±16% of cells at 10 μM for 25 hours (see, e.g., FIGS. 2B and 2D, respectively).

[2] = test system: PFK1-mEGFP clustering in HeLa-T-PFK1G cells; test: qHTS PFK1-mEGFP clustering assay with the LOKI library; conditions: for Curve class: LOKI screen; for PFK1-mEGFP clustering when the assay was repeated: repeat of the LOKI assay, FIGS. 8A-8C
Experimental: HeLa-T-PFK1G cells were plated in 1536-well black, clear bottom, low base microwell plates (Aurora Microplates, Inc.) at a density of 400 cells/well in DMEM supplemented with 10% dialyzed FBS, 1% Pen-Strep, and 1 μg/mL doxycycline. The cells were incubated at 37° C., 5% CO2, and 95% humidity for 16 hours. A qHTS assay was scaled to 4 μL volumes in 1536-well format in a semi-automated manner.
Second, the qHTS assay was carried out with the LOKI library (10 mM, 11-point 1:3 intra-plate titration). Again, 23 nL of compounds were transferred by a pintool (Kalypsys) in the final concentration range of 974 pM to 57.5 μM along with DMSO. […] The cells were then incubated overnight with small molecules. Approximately 24 hours later, the cells were fixed with 3.5% paraformaldehyde and nuclei were stained using a 1:1000 dilution of Hoechst dye for ˜20 minutes. Cells were washed and imaged with an INCell Analyzer 2000 or INCell Analyzer 2200 (GE Healthcare Life Sciences) as described above.
Images were processed in the GE Workstation software and analyzed with a multitarget analysis of fluorescence. Top-hat segmentation of the DAPI channel was used to identify nuclei with a minimum area of 100 μm^2 and sensitivity of 40 settings. Multiscale top-hat segmentation of the FITC channel was used to identify cells with a characteristic area of 200 μm^2 and sensitivity of 70 settings. This allowed for the identification of fluorescent cells from the background or dead cells. Following cell segmentation, the same FITC channel was analyzed with multiscale top-hat segmentation to identify PFK1-mEGFP clusters with a size range of 0.2-2 μm^2, number scales of 1, process parameters of 1 pixel, sensitivity of 40, and inclusions in the cytoplasm. A filter of object area, that is, the area of PFK1-mEGFP clusters, below 30 μm^2 and an advanced sensitivity range of 1.5, was also applied. A decision tree thresholding was developed to identify cells with PFK1 clusters with three nodes. The start node required a cell intensity above 110 GL, the second node required a PFK1 cluster count above 1, and the third node required the total area of the PFK1 cluster above 5 μm^2. Ultimately, this allowed for the identification of cluster-positive cells over non-clustering cells. The total number of cells with a total area of PFK1 clusters above 5 μm^2 (most stringent parameter) and the total number of cells with any PFK1 clusters were calculated with the above algorithm and normalized by plate to the 57.5 μM kenpaullone intra-plate control as previously described (Inglese et al., 2006). Assay effectiveness including S:N (the signal to noise ratio) and Z′ (the index of assay quality (Zhang et al., 1999)) were calculated for both parameters using the same respective control. Both parameters were normalized to the average signal of DMSO (vehicle)-treated wells as a zero percent neutral control and the average signal of 57.5 μM kenpaullone-treated wells as maximum PFK1-mEGFP clustering. Cell count based on the number of nuclei was used as a parameter of cytotoxicity, which was also normalized to the average signal of DMSO-treated wells as a zero percent neutral control and the average signal of 57.5 μM […]-treated wells as maximum PFK1-mEGFP clustering. The respective normalized data from each assay plate was corrected using DMSO only treated assay plates at the beginning and end of each library screen. In-house software (http://ncgc.nih.gov/pub/openhts/curvefit/) was used to fit the resulting intra-plate titration data to the standard Hill equation and concentration-response curves were classified by a titration curve as previously described (Southall et al.). Curve fits assignments of class 1.1, 1.2, 2.1 and 2.2s were considered active (i.e., promotion of the PFK1-mEGFP clusters) and visually confirmed.

[3] = test system: PFK1-mEGFP clustering in HeLa-T-PFK1G cells; test: Resveratrol-induced clustering of PFK1-mEGFP (positive control, assay development); conditions: 200-250 μM, three hours
Experimental: Cells were treated with 200-250 μM resveratrol for three hours. Scale bar, 10 μm.

[4] = test system: transiently expressed PFK1-mEGFP in HeLa cells; test: PFK1-mEGFP clustering in transiently transfected wild-type HeLa cells; conditions: 57.5 μM, 5 hours
Experimental: A day before transient transfection, wild-type HeLa cells were plated on either glass-bottomed 35 mm petri dishes (MatTek) or 8-well chambers (LabTek) in RPMI 1640 supplemented with 10% dialyzed FBS without antibiotics. The following day, HeLa cells were transfected with PFK1-mEGFP using Lipofectamine 2000 (Invitrogen Cat#11668019) in Opti-MEM I (ThermoFisher Cat#11058-021) and allowed to incubate in a HeraCell CO2 incubator (37° C., 5% CO2, and 95% humidity). Approximately 5 hours later, the medium was exchanged for fresh growth medium and incubated overnight in the CO2 incubator.
A day before imaging, HeLa-T-PFK1G cells in RPMI1640 supplemented with 10% dialyzed FBS, 200 ug/ml G418 sulfate and 100 ug/ml hygromycin B, were plated in the presence of 1 μg/mL doxycycline to induce the expression of PFK1-mEGFP. On the day of imaging, the cells were washed three times with an imaging solution (20 mM HEPES (pH 7.4), 135 mM NaCl, 5 mM KCl, 1 mM MgCl2, 1.8 mM CaCl2) and 5.6 mM glucose) and allowed to adjust to ambient temperature for ˜45-60 minutes prior to small molecule treatments. […]
As a control, PFK1-mEGFP was transiently transfected into wild-type HeLa cells and treated with SU9516. After 5 hours of treatment with 57.5 μM of SU9516, the promotion of medium- and large-sized clusters from small-sized clusters at single-cell levels were monitored (FIG. 4).

[5] = test system: cell cycle progression of HeLa-T-PFK1G cells; test: Cell cycle analysis by propidium iodide staining and flow cytometry; conditions: 10 μM, 24 hours
Experimental: FIG. 7A illustrates the effect of SU9516 on the cell cycle progression of HeLa-T-PFK1G cells. Cells received no small molecules or were treated with DMSO or 10 uM SU9516 and incubated for 24 hours. Then, cells were assessed for cell cycle progression by propidium iodide staining. The changes of the average percentage of cells in each cell cycle following incubation with an indicated compound are shown. Error bars represent the standard deviations of at least three trials and statistical significance was determined using student's two-tailed t test. HeLa-T-PFK1G cells were plated in 6-well plates for a confluency of 70-90% in RPMI1640 supplemented with 10% dialyzed FBS in the presence of 1 ug/mL doxycycline. The following day, the cells were treated with SU9516 or DMSO for 24 hours. The cells were then harvested and analyzed for the cell cycle progression as previously described (Crowley et al., 2016). Briefly, hundreds of thousands of cells were removed from 6-well plates using trypsin, washed with 1×PBS (pH 7.4), resuspended in ice-cold PBS and fixed with ice-cold methanol for 20 minutes at 4° C. The cells were then washed and resuspended in the cell cycle buffer, which contains 30 ug/mL propidium iodide and 100 μg/mL RNase A (Thermo Cat # EN0531) in 1×PBS (pH 7.4). After being incubated for at least 45 minutes, flow cytometry was performed with a CyAn ADP (Beckman Coulter) running Summit V 4.00, equipped with a 488 nm laser line and 530/40 and 613/20 emission filters. Using FlowJo (FlowJo, LLC), cell populations were gated based on the expression of PFK1-mEGFP in cells as well as their size and granularity. The cell cycle progression was then assessed by the Dean-Jett-Fox analysis using Cell Cycle platform available in FlowJo (Fox, 1980).

[6] = Table 5, CDK inhibitors that did not induce PFK1-mEGFP clustering
[7] = Table 4, inhibitors of the off-targets of SU9516
[8] = 10 μM, 24 hr, HeLa-T-PFK1G cells

## CN1CCC[C@@H]1CCO[C@](C)(c1ccccc1)c1ccc(Cl)cc1 [clemastine fumarate, Clemastine fumarate]
[1]; 57.5 μM, 6 hr, HeLa-T-PFK1G cells
  cell morphology observed: protein localization and cell death

## Cn1cnc2c(NCc3ccccc3)nc(NCCO)nc21 [NCGC00015763-01]
[2]; [6]
  Curve class: 4

## CC(C)c1cnn2c(NCc3ccccc3)cc(NCCCCCCN)nc12 [NCGC00346553-01, BS-181]
[2]; [7]
  Curve class: 2.1
[2]
  PFK1-mEGFP clustering when the assay was repeated: did not promote PFK1-mEGFP clustering

## CCc1ccc(NC(=O)c2[nH]c(C)c(C(C)=O)c2C)cc1S(=O)(=O)Nc1cccc(C#N)c1 [NCGC00345632-01]
[2]; [6]
  Curve class: −2.1

## Oc1ccc(C=Cc2cc(O)cc(O)c2)cc1 [resveratrol]
[3]
  percent of cells exhibiting medium- or large-sized clusters in the cytoplasm: 80-90%

## COc1ccc2c(c1)/C(=C/c1cnc[nH]1)C(=O)N2 [SU9516, 3-[1-(3H-Imidazol-4-yl)-meth-(Z)-ylidene]-5-methoxy-1,3-dihydro-indol-2-one]
[4]
  promotion of medium- and large-sized PFK1-mEGFP clusters: capable of promoting PFK1-mEGFP clusters
[1]; 10 μM for 25 hours
  percent of cells with medium- and large-sized PFK1-mEGFP clustering: 40.0±16%
[1]; 57.5 μM for 5 hours
  percent of cells with medium- and large-sized PFK1-mEGFP clustering: 26.6±12%
[1]; 57.5 μM for 5 hours and 10 μM for 25 hours
  ability to induce PFK1-mEGFP clustering under high-resolution fluorescence microscopy: capable of inducing PFK1-mEGFP clusters
[1]; Homo sapiens, titration for 25 hours, HeLa-T-PFK1G cells, read-out: EC50 with respect to PFK1-mEGFP clustering
  pEC50: 5.17
[5]; 18.9%±[…] without compound
  population of cells in the G2 phase: 45.6%±1.9%
[5]; 21.5%±7.2% without compound
  population of cells in the S phase: 4.2%±2.4%
[5]; 54.7%±5.7% without compound, no significant change
  population of cells in the G1 phase: 48.4%±2.7%

## CC(=O)OC1C(C)OC(Oc2c(-c3ccc(O)cc3)oc3cc(O)cc(O)c3c2=O)C(O)C1OC(C)=O (stereo not drawn) [NCGC00346893-01, SL-0101-1]
[2]; [7]
  Curve class: 2.1
[2]; [6]
  Curve class: 4
[2]
  PFK1-mEGFP clustering when the assay was repeated: did not promote PFK1-mEGFP clustering

## CN1CCC(c2c(O)cc(O)c3c(=O)cc(-c4ccccc4Cl)oc23)C(O)C1 (stereo in doubt) [NCGC00250401-01]
[2]; [6]
  Curve class: 4

## CCS(=O)(=O)Nc1ccc2c(c1)/C(=C(/Nc1ccc(CN3CCCCC3)cc1)c1ccccc1)C(=O)N2 [NCGC00346542-01, Hesperadin]
[2]; [7]
  Curve class: 2.1

## CC(O)(C#Cc1ccc2c(c1)N(c1nc(N)ncc1Cl)CC2)c1nccs1 (stereo not drawn) [NCGC00346747-02]
[2]; PFK1-mEGFP clustering vs log compound concentration, Table 3 hits
  Curve class: 2.1

## C=CCc1cccc(/C=N/NC(=O)CN2CCN(Cc3ccccc3)CC2)c1O [PAC-1]
[1]; [8]
  cell morphology observed: vacuole-type artifact

## O=C(NC1CCNCC1)c1[nH]ncc1NC(=O)c1c(Cl)cccc1Cl [NCGC00263091-01]
[2]; [6]
  Curve class: −1.3

## CC(=O)NCC(=O)N1[C@H]2CC[C@H]1c1cc(Nc3ncc(C(F)(F)F)c(NC4CCC4)n3)ccc12 [NCGC00346652-01, PF-03814735]
[2]; [7]
  Curve class: 2.1
[2]
  PFK1-mEGFP clustering when the assay was repeated: induced PFK1-mEGFP clustering

## CC(=O)c1c(C)c2cnc(Nc3ccc(N4CCNCC4)cn3)nc2n(C2CCCC2)c1=O [NCGC00263129-01, Palbociclib]
[2]; [7]
  Curve class: 2.1

## Clc1ccc(C(c2ccc(Cl)cc2)n2cc[n+](CC(OCc3ccc(Cl)cc3Cl)c3ccc(Cl)cc3Cl)c2)cc1 (stereo not drawn) [calmidazolium chloride, Calmidazolium chloride]
[1]; [8]
  cell morphology observed: vacuole-type artifact

## Cn1c(=O)c(F)c(Nc2ccc(I)cc2F)c2c(=O)n(C[C@@H](O)CO)cnc21 [NCGC00263187-01]
[2]; [6]
  Curve class: −2.4
